These results are taken from the METLIN SMRT retention time set (Domingo-Almenara et al. 2019).

The nature of this data set: gradient 5% acetonitrile 3 min, to 50% in 2 min, to 85% in 15 min, held 3 min, 100 µL/min. The following applies: column: Zorbax Extend-C18 2.1 x 50 mm; eluents: water / acetonitrile, 0.1% formic acid. Put shortly: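 Pure standards were analyzed in mixtures of ~100 molecules using HPLC coupled to a quadrupole time-of-flight mass spectrometer, in both positive and negative ionization mode. Separation used a Zorbax Extend-C18 column (2.1 × 50 mm, 1.8 μm) at 100 μL/min, with water and acetonitrile each containing 0.1% formic acid. Dead and dwell volumes were 40 μL and 900 μL, and data were collected over 3 months. Retention time was read from computationally picked adduct peaks, each inspected manually.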
`CCOC(=O)c1ccc(NC(=O)N(C)Cc2nc3cc(C(=O)N(C)C)ccc3n2C)cc1` came in with an RP-LC retention time of 634 s.

The molecule `O=C(Cc1cccn1-c1ccc(Cl)cc1)NCc1ccc(N2CCOCC2)cc1` registered an RP-LC retention time of 886 s. In the case of `Cc1cc(C)nc(Nc2nc(C(=O)Nc3ccc(N4CCOCC4)cc3)cs2)n1`, the RP-LC retention time was determined as 746 s. To `Cc1ncc2c(n1)CCN(C(=O)c1ccccc1Br)C2` belongs 655 s; to `CCc1ccc(CNC(=O)c2c(C)sc3ccn(CC)c(=O)c23)cc1`, 959 s. For `O=c1n(CCOc2ccc(F)cc2)nc2c(S(=O)(=O)N3CCCCCC3)cccn12`, the RP-LC retention time is 744 s. The molecule `Cc1ccc(-n2c(N3CCC(C(=O)NC4CC4)CC3)nc3ccsc3c2=O)cc1` returned an RP-LC retention time of 719 s. To `O=C(C1CCN(c2ccncc2)CC1)N1CCN(c2ncccn2)CC1` belongs 570 s; to `O=S(=O)(Cc1cccc(Cl)c1)NCC1CCN(Cc2ccco2)CC1`, 573 s. The result for `COc1cc(Nc2c(C#N)cnc3cc(OCCCN4CCN(C)CC4)c(OC)cc23)c(Cl)cc1Cl` reads 675 s. For `CCOC(=O)c1cnc2nc(-c3ccccc3)nn2c1C`, the RP-LC retention time worked out at 917 s. `CCOC(=O)c1c(C)[nH]c(CCC(=O)NCCOC)c1C` returned an RP-LC retention time of 668 s. `O=C(COc1ccccc1[N+](=O)[O-])N(Cc1ccccc1)Cc1ccccc1` had an RP-LC retention time of 1000 s. As for `COc1ccc(Cl)cc1NC(=O)C(C)Oc1cc(C(F)(F)F)c2c(C)nn(C)c2n1` (stereo not given), the RP-LC retention time came out at 1200 s. The molecule `CCNc1cc(N2CCCC(CCC(=O)NC3CCCC3)C2)ncn1` (stereo not given) yielded an RP-LC retention time of 646 s. In turn, `COc1ccc2[nH]cc(CCNC(=O)C3CCCCC3)c2c1` returned an RP-LC retention time of 804 s. Molecule `COc1ccc(S(=O)(=O)N2CCCC(c3nnnn3C)C2)cc1` (stereo not given) came in with an RP-LC retention time of 744 s. `CC(C)OCCCNC(=O)c1ccc2c(c1)N(C)C(=O)C1CCCCN21` (stereo not given) gave an RP-LC retention time of 770 s. In the case of `Cc1cc2[nH]c(C(=O)Nc3cc(F)c(F)c(F)c3)c(CN(C)C)c2s1`, the RP-LC retention time amounted to 743 s.

Consider `O=C(C1CCN(S(=O)(=O)N2CCOCC2)CC1)N1CCN(Cc2noc3ccccc23)CC1`, for which the RP-LC retention time turned out to be 645 s. Molecule `CCOC(=O)c1[nH]c(C)c(C(=O)C(C)N(CC)C(=O)c2ccc(OC)cc2)c1C` (stereo not given) had an RP-LC retention time of 795 s. `Cc1ccc(Oc2nccn3c(=O)n(CC(=O)NCCCc4ccccc4)nc23)cc1` yielded an RP-LC retention time of 928 s. To `Cc1ccc(-c2nc3c(C)cccn3c2Nc2ccccc2C)cc1` belongs 788 s; to `CCc1onc(C)c1C1CCCN1C(=O)Nc1cc(C)ccc1OC` (stereo not given), 935 s. As to `Cc1nc(-c2csc(S(=O)(=O)N3CCCC(C(=O)Nc4ccccc4Cl)C3)c2)no1` (stereo not given), the RP-LC retention time amounted to 975 s.

`CN1c2ccc(Cl)cc2C(=O)NC12CCN(C(=O)c1ccc3c(c1)OCO3)CC2`: the RP-LC retention time came out at 769 s. For `CCOC(=O)c1c(C)c(CCC(=O)NC2CCCCC2)n(C)c1C`, the RP-LC retention time worked out at 892 s. The result for `CCC(=O)N1CCc2cc(N3CC(C(=O)Nc4ccc(OC)cc4)CC3=O)ccc21` (stereo not given) reads 714 s. The result for `COc1ccc(-c2csc3c(=O)n(CC(=O)OC(C)(C)C)cnc23)cc1` reads 1180 s; that for `Cc1ccsc1C(=O)N1CCCn2nc(-c3ccncc3)cc2C1`, 602 s.

With `O=S(=O)(c1ccc(-c2nnc(C3CC3)o2)o1)N1CCCCC1`, the RP-LC retention time came out at 853 s. Take `CC1=C(c2cccc(Cl)c2)S(=O)(=O)N=C1N1CCCN(C(=O)NCC(C)C)CC1`: the RP-LC retention time worked out at 814 s. Molecule `O=S(=O)(c1ccccc1Cl)N1CC(COc2ccncc2)C2(CCOCC2)C1` (stereo not given) registered an RP-LC retention time of 574 s. Molecule `CCCNC(=O)c1cc(=O)[nH]c2c(C)cccc12` showed an RP-LC retention time of 647 s. For `CO/N=C(\C(=O)N[C@@H]1C(=O)N2C(C(=O)OCOC(=O)C(C)(C)C)=C(/C=C\c3scnc3C)CS[C@H]12)c1csc(N)n1`, the RP-LC retention time was 792 s. The result for `Fc1ccc(Nc2c(-c3ccc(Cl)cc3)nc3cnccn23)cc1` reads 963 s. Molecule `CCCn1c(=O)sc2cc(S(=O)(=O)N3CCC(C(=O)Nc4ccc(F)cc4C)CC3)ccc21` returned an RP-LC retention time of 974 s.

In turn, `CN1CCN2c3ncccc3Cc3ccccc3[C@@H]2C1` had an RP-LC retention time of 647 s. In turn, `CCCn1cc(C(=O)NCc2cccc(C)c2)c(S(=O)(=O)N2CCC(C)CC2)n1` gave an RP-LC retention time of 1130 s. `CC(C)CNC(=O)c1ccc2c(c1)CCCN2S(C)(=O)=O` yielded an RP-LC retention time of 774 s.

As for `CCc1ccc(NC(=O)N2CCC(N3CCN(Cc4ccccc4)C(=O)C3=O)CC2)cc1`, the RP-LC retention time stood at 789 s. On to `O=C(NCc1nc2ccccc2n1CC(=O)N1CCCC1)c1ccco1`, for which the RP-LC retention time turned out to be 587 s. To `CN1CCN(CCCNC(=O)CCCN2C(=O)C(c3ccccc3)Oc3cccnc32)CC1` (stereo not given) belongs 595 s; to `CCN(CC)c1nc2cc(C(=O)NCC3CC3)ccc2c(=O)n1Cc1ccc(C)cc1`, 1090 s; to `O=S(=O)(c1cccn2c(SCc3cccc(Br)c3)nnc12)N1CCCCC1`, 930 s.

`Cn1c(=O)n(C)c2cc(S(=O)(=O)c3ccc(F)cc3)c(NC(=O)Cc3cccs3)cc21`: the RP-LC retention time is 790 s. Turning to `CCOCC(=O)N1CCCN(C2=NS(=O)(=O)C(c3ccc(CC)cc3)=C2C)CC1`, the RP-LC retention time is 790 s. On to `CCc1ccc(NC(=O)Cn2cnc3nc(N4CCCC(C(=O)NC)C4)sc3c2=O)cc1` (stereo not given), for which the RP-LC retention time came to 694 s. To `Brc1cccc(-c2noc(Cn3ccnc3)n2)c1` belongs 650 s. As to `O=C(NCc1ccc(Br)cc1)C1CCN(c2ncnc3c2oc2ccccc23)CC1`, the RP-LC retention time is 982 s. On to `Cc1ccc2oc(C(=O)NCCc3cccs3)cc2n1`, for which the RP-LC retention time turned out to be 640 s. Molecule `Cc1cc(OCC(=O)N2CCCCC2CCN2CCOCC2)ccc1Cl` (stereo not given) yielded an RP-LC retention time of 689 s.

Turning to `Cc1cccc(NC(=O)CN2C(=O)CCS(=O)(=O)c3ccccc32)c1`, the RP-LC retention time turned out to be 762 s. `CCCn1cc(CCNC(=O)c2ccccc2Br)c2cccnc21` yielded an RP-LC retention time of 748 s.

Take `CCc1nc(-c2cc3ccccc3nc2N2CCN(c3ccc(OC)cc3)CC2)no1`: the RP-LC retention time was found to be 687 s.

`Cc1ccc(-c2ccc(-n3nc(C)c(S(=O)(=O)N4CCOCC4)c3C)nn2)cc1` showed an RP-LC retention time of 972 s.

`COc1ccccc1NC(=O)N1CCc2cn(C)c3cccc(c23)C1` showed an RP-LC retention time of 944 s.

Turning to `CC(C)n1cnc(S(=O)(=O)N2CCCC(C(=O)Nc3cccc(C(F)(F)F)c3)C2)c1` (stereo not given), the RP-LC retention time came to 890 s. On to `CCOc1ccc(S(=O)(=O)N2CCC(C(=O)NC3CCCCC3)CC2)cc1`, for which the RP-LC retention time turned out to be 922 s. With `CCCN(CCC)[C@@H]1CCc2cccc(O)c2C1`, the RP-LC retention time was 691 s.

In turn, `CCn1cc(C(=O)NCc2ccccc2F)c(S(=O)(=O)N2CCSCC2)n1` had an RP-LC retention time of 901 s. On to `CCc1cc(=O)n(CC(=O)Nc2cc(Cl)ccc2OC)c(N2CCOCC2)n1`, for which the RP-LC retention time worked out at 935 s. With `COC(=O)c1ccc2c(=O)n(-c3ccc(Cl)cc3)c(N3CCN(C)CC3)nc2c1`, the RP-LC retention time worked out at 670 s. The result for `CCC(=O)NCc1csc(C2CCN(C(=O)C3CCC3)CC2)n1` reads 614 s; that for `Cc1nnc(C2CCCN(C(=O)c3cc(-c4ccc5c(c4)OCO5)n[nH]3)C2)s1` (stereo not given), 654 s; that for `O=c1ccc(N2CCC(NS(=O)(=O)c3ccc(Cl)s3)CC2)nn1CC1CC1`, 875 s. `COc1ccccc1NC(=O)Cc1csc2nc(-c3ccc(OC)c(OC)c3)cn12`: the RP-LC retention time was 734 s. On to `Cc1nn(C(C)C(=O)N2CCC(N3CCCCC3)CC2)c(=O)c2nn(-c3ccccc3)c(C)c12` (stereo not given), for which the RP-LC retention time is 622 s. `CCSc1ccccc1C(=O)NCCS(=O)(=O)N1CCc2ccccc2C1` showed an RP-LC retention time of 862 s. `CCN1C(=O)c2ccccc2S(=O)c2ccc(C(=O)N3CCN(c4ccccn4)CC3)cc21` (stereo not given) yielded an RP-LC retention time of 595 s.

In turn, `Nc1c(C(=O)Nc2nc(-c3ccccc3)cs2)sc2nc3c(cc12)CCCCC3` registered an RP-LC retention time of 1170 s.

For the molecule `Cc1ccn2cc(C(=O)NCc3ccc(N(C)C)cc3)nc2c1`, the RP-LC retention time stood at 543 s. The molecule `Cc1ccc(C)c(NS(=O)(=O)c2cc(-c3[nH]ncc3C(=O)N3CCCC3)oc2C)c1` showed an RP-LC retention time of 760 s. For `CC1CCCN(CCCNC(=O)CN2C(=O)CCn3nc(-c4cn(C)c5ccccc45)cc32)C1` (stereo not given), the RP-LC retention time turned out to be 635 s.

For `COc1cc(NC(=O)c2sc(-c3cn(C)c4ncccc34)nc2C)cc(OC)c1`, the RP-LC retention time was 764 s. `OCC1CN(c2ccncn2)CC12CCN(Cc1c[nH]c3ccccc13)CC2` (stereo not given): the RP-LC retention time was 579 s. The result for `CCN1CCCn2cc(S(=O)(=O)Nc3cccc(C)c3C)cc2C1=O` reads 768 s; that for `CCOc1ccc(-c2nc(CN3C(=O)C(O)(c4ccccc4)c4ccccc43)c(C)o2)cc1` (stereo not given), 1110 s.

With `COc1ccc2c(c1)C1(CCN(C(=O)c3ccc(C)cc3)C1)C(=O)N2` (stereo not given), the RP-LC retention time was 727 s. For `CCc1nn2c(nnc3c(=O)n(CCc4c[nH]c5ccccc45)ccc32)c1-c1ccc(F)cc1`, the RP-LC retention time came to 1040 s.
